{"source": "patent US20210380722A1", "about": "“COMPOSITIONS AND METHODS FOR THE TREATMENT OF MAJOR DEPRESSIVE DISORDER” (Snake River Bioscience, Inc., priority 2019, published 2021)", "key": {"[1]": {"test_system": "hippocampal neurons", "conditions": "cited from earlier work; for autophagy: Gulbins et al., Molecular Psychiatry (2018)"}, "[2]": {"test_system": "wildtype mice", "test": "ceramide concentrations in exosomes from blood plasma of stressed mice (mass spectrometry, kinase assay)", "assay_type": "in vivo", "conditions": "corticosterone via drinking water 120 mg/L for 7 days; FIG. 1c", "protocol": "Corticosterone (Sigma, St. Louis, Mo.) was administered to mice via the drinking water at 120 mg/L for 7 days. In the chronic unpredictable stress model (CUS), the mice were challenged with unpredictable environmental stress for 8 days, i.e., a reversal of the light/dark cycle, 3 h of 45° tilting of the cage twice each week, shaking at 125 rpm, food deprivation for 14 h, predator sounds (15 min) or wet cages (1 h) with two forms of stress per day in a randomized (unpredictable) order. Blood was collected from the heart into heparin-coated needles and tubes immediately after sacrifice by cervical dislocation. Blood plasma was centrifuged at 3500 rpm for 5 min at 4° C. in an Eppendorf centrifuge. […]\n10 μL of blood plasma or of resuspended exosomes (corresponding to 50 μL plasma) was added to 190 μL H2O and extracted in 600 μL CHCl3:CH3OH:1N HCl (100:100:1, v/v/v). […] Ceramide amounts were determined by comparison with a standard curve; C16 to C24 ceramides were used as substrates.\nSamples were subjected to lipid extraction with 1.5 mL methanol/chloroform (2:1, v:v). […] Dried residues were reconstituted in 200 μL of a 95:5 (v:v) mixture of high-performance liquid chromatography (HPLC) eluents B:A (see below), thoroughly vortexed for 10 min at 1,500 rpm, centrifuged at 2,200×g for 10 min at 4° C., and subjected to mass spectrometric sphingolipid quantification. […]"}, "[3]": {"test_system": "untreated mice", "test": "high dose of corticosterone in untreated mice, symptoms of major depression after 24 h", "assay_type": "in vivo", "conditions": "1 mg/kg, data not shown", "protocol": "To exclude the possibility that investigators were measuring the effects of corticosterone that might have remained in the plasma of these mice, untreated mice were injected with a high dose of corticosterone (1 mg/kg) and the presence of biochemical and behavioral symptoms of major depression after 24 h were assessed."}, "[4]": {"test_system": "sphingomyelin synthases", "conditions": "direct inhibition of sphingomyelin synthases; cited from earlier work"}, "[5]": {"test_system": "wildtype mice", "test": "C16-ceramide loaded plasma or exosomes injected i.v. into wildtype mice", "assay_type": "in vivo", "conditions": "plasma or exosomes of untreated mice loaded with 2 μM C16-ceramide, FIG. 4e", "protocol": "Plasma or exosomes were loaded with C16 ceramide or deuterated C16 ceramide (Avanti Polar Lipids, USA) by incubation of purified exosomes with 2 μM C16 ceramide or 2 deuterated C16 ceramide in 100 μL PBS for 60 min at 37° C. Plasma samples were directly injected i.v. into healthy mice. Exosomes were centrifuged again at 100,000×g for 70 min, the supernatant was discarded, resuspended in PBS and injected i.v. into healthy mice.\nFor BrdU staining, mice were injected with BrdU 4 times, once every 2 h. Mice were sacrificed 24 h after the first injection and brains were prepared as above. […]\nBehavioral testing was performed between 3:00 p.m. and 6:00 p.m. under diffuse indirect room light. […] The time was recorded during which the mice explored a new environment before they began eating. […] The time that the mouse spent in each of the separate compartments was recorded. […] In the coat state test, the appearance of the coat (groomed vs unkempt coat) was scored on the head, neck, back, and ventrum with either a zero for normal status or a 1 for unkempt status. […] After 24 h the mice were again placed in a water-filled cylinder for 6 min, and the time of mobility or immobility during the last 4 min of the second trial was recorded. […]"}}}
{"smiles": "CN(C)CCC=C1c2ccccc2CCc2ccccc21", "note": "[amitriptyline]", "values": [{"measurement": "autophagy", "setting": "[1]", "result": "induce autophagy in hippocampal neurons"}]}
{"smiles": "C[C@]12C[C@H](O)[C@H]3[C@@H](CCC4=CC(=O)CC[C@@]43C)[C@@H]1CC[C@@H]2C(=O)CO", "note": "[glucocorticosterone, Corticosterone]", "values": [{"measurement": "ceramide concentrations in exosomes in the blood plasma", "setting": "[2]", "result": "marked increase in ceramide concentrations"}, {"measurement": "induction of MDD (biochemical and behavioral symptoms of major depression)", "setting": "[3]", "result": "not sufficient to induce MDD"}]}
{"smiles": "S=C(S)OC1CC2CC1C1CCCC21", "note": "(centres unmarked) [D609]", "values": [{"measurement": "stress-induced MDD", "setting": "[4]", "result": "rapid reversal of stress-induced MDD"}, {"measurement": "autophagy", "setting": "[1]", "result": "activation of autophagy"}, {"measurement": "ceramide in the endoplasmic reticulum (ER)", "setting": "[1]; direct inhibition of sphingomyelin synthases", "result": "rapid accumulation of ceramide in the ER"}]}
{"smiles": "CNCCC(Oc1ccc(C(F)(F)F)cc1)c1ccccc1", "note": "(centres unmarked) [fluoxetine]", "values": [{"measurement": "autophagy", "setting": "[1]", "result": "induce autophagy in hippocampal neurons"}]}
{"smiles": "CCCCCCCCCCCCC/C=C/[C@@H](O)[C@H](CO)NC(=O)CCCCCCCCCCCCCCC", "note": "[C16-ceramide, C16 ceramide]", "values": [{"measurement": "induction of MDD (behavioral changes and neuronal proliferation)", "setting": "[5]", "result": "sufficient to induce MDD within 24 h"}]}
